Laboratory results taken from US10398717B2, “Pharmaceutical composition based on a hepatoprotector and prebiotic, and method for administrating” (priority 2008, dated 2019).

Experiments:
Sprague-Dawley rats = experiment: High-fat diet induced non-alcoholic hepatitis model; assay type: in vivo; settings: liver histology, day 121; oral administration during 90 days
Protocol: The control group (Group 4, n=14 in each group) was administered an equal amount of 1% methyl cellulose suspension. The animals were monitored for 120 days on the background of continuous pathology induction. Administration of drugs began after 30 days from the beginning of diet supplementation (10 % lard and 2% cholesterol for each 100 g feed). The effect of therapy was assessed by biochemical parameters (ALT, AST, triglycerides) and liver histology. On day 121, animals were euthanized and liver histology was performed. In the control group, […] of animals developed steatosis.

[1] = system: patients with diffuse liver diseases (cirrhosis, hepatitis) with intrhepatic cholestasis syndrome; settings: human, in vivo; cited from earlier work
colon contents = settings: in vivo; cited from earlier work
[2] = cited from earlier work

In the case of `C[C@H](CCC(=O)O)[C@H]1CC[C@H]2[C@@H]3[C@@H](O)C[C@@H]4C[C@H](O)CC[C@]4(C)[C@H]3CC[C@]12C` [Group 3, ursodeoxycholic acid], the “rats in which signs of steatosis, ballooning, and inflammation improved” value (Sprague-Dawley rats) is reported as 50%.
In the case of `C[S+](CC[C@H](N)C(=O)[O-])C[C@H]1O[C@@H](n2cnc3c(N)ncnc32)[C@H](O)[C@@H]1O` (stereo partly drawn) [ademethionine, S-adenosil-L-metionine], the “duration of antiasthenic, anticholestatic and hepatoprotective effects after the treatment was stopped” value [1] is listed as 3 months, the “patients with decrease of intensity of asthenic syndrome” value [1] is listed as 46% and the “patients with disappearance of asthenic syndrome” value [1] is listed as 54%.
For `OC[C@H]1O[C@@H](O[C@@H]2[C@@H](CO)O[C@](O)(CO)[C@H]2O)[C@H](O)[C@@H](O)[C@H]1O` [lactulose, 4-0-D-galactopyranosyl-D-fructose], the “increase of volume of colon contents” value (colon contents) is given as “about 30%” and the solubility in water [2] is given as “very soluble in water”.
